pEC50, pIC50: −log10 of the molar value.
How the values were obtained:
PRMT5/MEP50 complex = PRMT5/MEP50 complex (Homo sapiens, UniProt O14744); experiment: Inhibition of recombinant human fetal brain FLAG-tagged PRMT5/full length human testis 6His-tagged MEP50 expressed in baculovirus infected insect Sf9 cells using human histone H4 (1 to 15 residues) as substrate preincubated for 30 mins followed by [3H]-SAM addition
[1] = target: Protein arginine N-methyltransferase 5 (Homo sapiens, UniProt O14744); experiment: Inhibition of PRMT5 in human Z138 cells assessed as decrease in di-methyl arginine levels after 96 hrs by Western blot method; assay type: cell-based
[2] = Antiproliferative activity against human Z138 cells assessed as inhibition of cell viability after 5 days by Cell-Titer Glo assay; assay type: functional, cell-based; conditions: Z-138, 120 h

PRMT5/MEP50 complex, sequence (O14744 whole entry, the tested form may be a part): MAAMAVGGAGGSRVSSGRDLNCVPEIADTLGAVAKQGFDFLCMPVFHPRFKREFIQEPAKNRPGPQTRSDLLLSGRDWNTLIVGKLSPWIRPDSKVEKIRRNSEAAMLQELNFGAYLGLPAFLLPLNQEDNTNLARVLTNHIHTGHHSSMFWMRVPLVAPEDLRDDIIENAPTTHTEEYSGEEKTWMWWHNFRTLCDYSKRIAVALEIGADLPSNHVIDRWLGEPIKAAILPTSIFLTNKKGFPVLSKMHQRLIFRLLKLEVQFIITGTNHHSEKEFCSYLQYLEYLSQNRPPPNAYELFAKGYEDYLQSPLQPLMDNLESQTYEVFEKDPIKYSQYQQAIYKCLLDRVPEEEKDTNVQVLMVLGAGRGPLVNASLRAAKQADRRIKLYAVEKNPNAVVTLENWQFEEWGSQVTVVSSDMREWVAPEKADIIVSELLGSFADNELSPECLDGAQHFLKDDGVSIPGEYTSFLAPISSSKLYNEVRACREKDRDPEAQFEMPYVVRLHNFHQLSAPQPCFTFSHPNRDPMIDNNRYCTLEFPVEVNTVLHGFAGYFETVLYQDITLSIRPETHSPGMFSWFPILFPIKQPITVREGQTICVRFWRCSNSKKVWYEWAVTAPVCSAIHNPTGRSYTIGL
PRMT5/MEP50 complex, sequence (Q9BQA1 whole entry, further chain, the tested form may be a part): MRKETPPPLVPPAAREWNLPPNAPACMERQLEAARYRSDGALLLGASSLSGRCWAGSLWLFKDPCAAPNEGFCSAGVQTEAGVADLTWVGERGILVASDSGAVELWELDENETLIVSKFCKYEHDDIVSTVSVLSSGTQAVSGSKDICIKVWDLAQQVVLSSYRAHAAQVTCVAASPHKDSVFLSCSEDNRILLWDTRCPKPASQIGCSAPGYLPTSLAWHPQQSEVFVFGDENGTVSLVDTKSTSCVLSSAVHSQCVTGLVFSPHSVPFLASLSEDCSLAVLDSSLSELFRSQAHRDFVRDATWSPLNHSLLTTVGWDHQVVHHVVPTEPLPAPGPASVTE
Protein arginine N-methyltransferase 5, sequence (O14744 whole entry): as the sequence (O14744 whole entry, the tested form may be a part) above

| SMILES | pIC50 (PRMT5/MEP50 complex) | pEC50 [1] | pEC50 [2] |
| --- | --- | --- | --- |
| Cn1cnc2ccc(-c3ccnc(NC[C@H](O)CN4CCc5ccccc5C4)c3)cc21 | > 7.00 | 6.00 to 7.00 | 5.00 to 6.00 |
| Cn1ncc2cnc(-c3cccc(OCC(O)CN4CCc5ccccc5C4)c3)cc21 (stereo not drawn) | 6.00 to 7.00 | 6.00 to 7.00 | 4.40 to 5.00 |
| OC(CNc1cc(-c2ccc3ncn(C4COC4)c3c2)ccn1)CN1CCc2ccccc2C1 (stereo not drawn) | > 7.00 | 6.00 to 7.00 | 5.00 to 6.00 |
| C[C@@H](Oc1cccc2cccnc12)C(=O)NC[C@H](O)CN1Cc2ccccc2C1 | > 7.00 | 6.00 to 7.00 | 5.00 to 6.00 |
| O=C(Cn1ccc2cnc(-c3cccc(OCC(O)CN4CCc5ccccc5C4)c3)nc21)N1CCOCC1 (stereo not drawn) | 6.00 to 7.00 | 6.00 to 7.00 | 4.40 to 5.00 |
| Cc1ncc2ccc(-c3cccc(OCC(O)CN4CCc5ccccc5C4)c3)cn12 (stereo not drawn) | > 7.00 | 5.00 to 6.00 | 5.00 to 6.00 |
| O=C(COc1cccc2cccnc12)NC[C@H](O)CN1Cc2ccccc2C1 | > 7.00 | 6.00 to 7.00 | 5.00 to 6.00 |
| Cn1cncc1C(=O)Nc1cccc(OC[C@H](O)CN2CCc3ccccc3C2)c1 | 6.00 to 7.00 | 6.00 to 7.00 | 4.40 to 5.00 |
| CN1CCN(C(=O)Cn2ccc3cnc(-c4ccnc(NCC(O)CN5CCc6ccccc6C5)c4)nc32)CC1 (stereo not drawn) | > 7.00 | > 7.00 | 5.00 to 6.00 |
| CN(C)S(=O)(=O)c1ccccc1OCC(=O)NCC(O)CN1Cc2ccccc2C1 (stereo not drawn) | > 7.00 | 6.00 to 7.00 | 5.00 to 6.00 |
| CN1CCC(n2cnc3ccc(-c4ccnc(NCC(O)CN5CCc6ccccc6C5)c4)cc32)C1 (stereo not drawn) | > 7.00 | 6.00 to 7.00 | 5.00 to 6.00 |
| O[C@H](COc1cccc(-c2cccc3cccnc23)c1)CN1CCc2ccccc2C1 | 6.00 to 7.00 | 5.00 to 6.00 | < 4.70 |
| Cn1cnc2ccc(-c3cc(NCC(O)CN4CCc5ccccc5C4)n[nH]3)cc21 (stereo not drawn) | 6.00 to 7.00 | 6.00 to 7.00 | < 4.70 |
| O=C(Cn1cnc2ccc(-c3cccc(OCC(O)CN4CCc5ccccc5C4)c3)cc21)N1CCCCC1 (stereo not drawn) | 6.00 to 7.00 | 6.00 to 7.00 | 4.40 to 5.00 |
| Cn1cc2ccc(-c3cccc(NCC(O)CN4CCc5ccccc5C4)c3)nc2n1 (stereo not drawn) | > 7.00 | 6.00 to 7.00 | 4.40 to 5.00 |
| O=C(Cn1ccc2cnc(-c3ccnc(NCC(O)CN4CCc5ccccc5C4)c3)nc21)N1CCCCC1 (stereo not drawn) | > 7.00 | > 7.00 | 6.00 to 7.00 |
| OC(CNc1cccc(-c2cccc3[nH]cnc23)c1)CN1CCc2ccccc2C1 (stereo not drawn) | 6.00 to 7.00 | 6.00 to 7.00 | 4.40 to 5.00 |
| CN1CCN(C(=O)Cn2ccc3cnc(-c4cccc(OCC(O)CN5CCc6ccccc6C5)c4)nc32)CC1 (stereo not drawn) | 6.00 to 7.00 | 6.00 to 7.00 | 4.40 to 5.00 |
| CNC(=O)Cn1ccc2cnc(-c3ccnc(NCC(O)CN4CCc5ccccc5C4)c3)nc21 (stereo not drawn) | > 7.00 | 6.00 to 7.00 | 5.00 to 6.00 |
| O[C@@H](COc1cccc(-c2cccc3cccnc23)c1)CN1CCc2ccccc2C1 | > 7.00 | 6.00 to 7.00 | 5.00 to 6.00 |
| O=C(COc1ccccc1-c1cc[nH]n1)NCC(O)CN1Cc2ccccc2C1 (stereo not drawn) | 6.00 to 7.00 | 6.00 to 7.00 | < 4.70 |
| Cn1cnc2ccc(-c3ccnc(NCC(O)CN4CCc5ccccc5C4)c3)nc21 (stereo not drawn) | > 7.00 | > 7.00 | 5.00 to 6.00 |
| OC(CNc1cc(-c2ccc3ncn(C4CCNC4)c3c2)ccn1)CN1CCc2ccccc2C1 (stereo not drawn) | > 7.00 | 6.00 to 7.00 | 5.00 to 6.00 |
| Cn1ccc2ccc(-c3cc(NCC(O)CN4CCc5ccccc5C4)ncn3)cc21 (stereo not drawn) | 6.00 to 7.00 | 6.00 to 7.00 | 4.40 to 5.00 |
| CC(=O)N1CCC(n2ccc3cnc(-c4ccnc(NCC(O)CN5CCc6ccccc6C5)c4)nc32)CC1 (stereo not drawn) | > 7.00 | > 7.00 | 6.00 to 7.00 |
| O=C(NCC(O)CN1Cc2ccccc2C1)c1cccc(-c2ccccn2)c1 (stereo not drawn) | 6.00 to 7.00 | 5.00 to 6.00 | < 4.70 |

| SMILES | pIC50 (PRMT5/MEP50 complex) | pEC50 [1] | pEC50 [2] |
| --- | --- | --- | --- |
| CNC(=O)Cn1cnc2ccc(-c3cccc(OCC(O)CN4CCc5ccccc5C4)c3)cc21 (stereo not drawn) | 6.00 to 7.00 | 5.00 to 6.00 | 5.00 to 6.00 |
| CC(=O)N(CC(O)CN1CCc2ccccc2C1)c1cccc(-c2ccc3ncn(C)c3c2)c1 (stereo not drawn) | > 7.00 | 6.00 to 7.00 | 4.40 to 5.00 |
| O=C(Cn1cnc2ccc(-c3cccc(OCC(O)CN4CCc5ccccc5C4)c3)cc21)N1CCCC1 (stereo not drawn) | 6.00 to 7.00 | 6.00 to 7.00 | 4.40 to 5.00 |
| Cn1cnc2cc(-c3cc(NCC(O)CN4CCc5ccccc5C4)n[nH]3)ccc21 (stereo not drawn) | 6.00 to 7.00 | 6.00 to 7.00 | 5.00 to 6.00 |
| Cn1cc2ccc(-c3ccnc(NCC(O)CN4CCc5ccccc5C4)c3)cc2n1 (stereo not drawn) | > 7.00 | 6.00 to 7.00 | 5.00 to 6.00 |
| O=C(Cn1ccc2cnc(-c3ccnc(NCC(O)CN4CCc5ccccc5C4)c3)nc21)N1CCOCC1 (stereo not drawn) | > 7.00 | > 7.00 | 6.00 to 7.00 |
| OC(COc1cccc(-c2ncc3ccn(C4CCNCC4)c3n2)c1)CN1CCc2ccccc2C1 (stereo not drawn) | > 7.00 | 6.00 to 7.00 | 5.00 to 6.00 |
| O=C(Cn1cnc2ccc(-c3cccc(OCC(O)CN4CCc5ccccc5C4)c3)cc21)N1CCOCC1 (stereo not drawn) | 6.00 to 7.00 | 5.00 to 6.00 | 5.00 to 6.00 |
| CN1CCC(n2cnc3ccc(-c4cccc(OCC(O)CN5CCc6ccccc6C5)c4)cc32)CC1 (stereo not drawn) | > 7.00 | 6.00 to 7.00 | 5.00 to 6.00 |
| CN1CCN(C(=O)Cn2cnc3ccc(-c4cccc(OCC(O)CN5CCc6ccccc6C5)c4)cc32)CC1 (stereo not drawn) | 6.00 to 7.00 | 6.00 to 7.00 | 4.40 to 5.00 |
| OC(COc1cccc(-c2ccc3ncn(C4COC4)c3c2)c1)CN1CCc2ccccc2C1 (stereo not drawn) | > 7.00 | 6.00 to 7.00 | 4.40 to 5.00 |
| O=C(Cn1ccc2cnc(-c3ccnc(NCC(O)CN4CCc5ccccc5C4)c3)nc21)N1CCCC1 (stereo not drawn) | > 7.00 | > 7.00 | 5.00 to 6.00 |
| OC(CNc1cc(-c2ncc3ccn(C4CCNCC4)c3n2)ccn1)CN1CCc2ccccc2C1 (stereo not drawn) | > 7.00 | > 7.00 | 6.00 to 7.00 |
| OC(CNc1cc(-c2ccc3ncn(C4CCOCC4)c3c2)ccn1)CN1CCc2ccccc2C1 (stereo not drawn) | > 7.00 | 6.00 to 7.00 | 5.00 to 6.00 |
| CN1CCC(n2cnc3ccc(-c4ccnc(NCC(O)CN5CCc6ccccc6C5)c4)cc32)CC1 (stereo not drawn) | > 7.00 | 6.00 to 7.00 | 5.00 to 6.00 |
| Cn1ccc2cnc(-c3ccnc(NCC(O)CN4CCc5ccccc5C4)c3)nc21 (stereo not drawn) | > 7.00 | > 7.00 | 5.00 to 6.00 |
| OC(CNc1cc(-c2ncc3ccn(C4CNC4)c3n2)ccn1)CN1CCc2ccccc2C1 (stereo not drawn) | > 7.00 | 6.00 to 7.00 | 5.00 to 6.00 |
| CC(=O)N1CCC(n2cnc3ccc(-c4ccnc(NCC(O)CN5CCc6ccccc6C5)c4)cc32)CC1 (stereo not drawn) | 6.00 to 7.00 | 6.00 to 7.00 | 5.00 to 6.00 |
| OC(CNc1cc(-c2ccc3ncn(C4CCNCC4)c3c2)ccn1)CN1CCc2ccccc2C1 (stereo not drawn) | > 7.00 | 6.00 to 7.00 | 5.00 to 6.00 |
| Cn1cc2ccc(-c3cc(NCC(O)CN4CCc5ccccc5C4)ncn3)cc2n1 (stereo not drawn) | 6.00 to 7.00 | 6.00 to 7.00 | < 4.70 |
| CC(=O)N1CCC(n2ccc3cnc(-c4cccc(OCC(O)CN5CCc6ccccc6C5)c4)nc32)CC1 (stereo not drawn) | 6.00 to 7.00 | 6.00 to 7.00 | 5.00 to 6.00 |
| C[C@H](Oc1cccc2cccnc12)C(=O)NC[C@@H](O)CN1Cc2ccccc2C1 | 5.00 to 7.00 | 6.00 to 7.00 | < 4.70 |
| OC(COc1cccc(-c2cccc3[nH]cnc23)c1)CN1CCc2ccccc2C1 (stereo not drawn) | > 7.00 | 6.00 to 7.00 | 4.40 to 5.00 |
| Cn1ncc2ccc(-c3ccnc(NCC(O)CN4CCc5ccccc5C4)c3)cc21 (stereo not drawn) | > 7.00 | 6.00 to 7.00 | 5.00 to 6.00 |
| Cn1cnc2ccc(-c3ccnc(NC[C@@H](O)CN4CCc5ccccc5C4)c3)cc21 | 6.00 to 7.00 | 5.00 to 6.00 | 5.00 to 6.00 |
